One data set relates to 51Cr-labelled EL4 cells. Description: Assay of lymphocyte mediated cytolysis (LMC) in vitro. It is filed as cell-based. The following applies: for % lysis Reduction: in presence of ADA inhibitor EHNA 7.9 µM. The protocol: The test compounds were assayed in vitro by the method described in Science, (N.Y.), 187, 957 (1975). The order of addition of reagents was (1) cytotoxic lymphocytes; (2) tests compound dissolved in pyrogen-free saline; (3) ^51Cr-labelled EL4 cells. In those experiments where an adenosine deaminase (ADA) inhibitor was required erthro-9-(2-hydroxy-3-nonyl)adenine (EHNA) was added before step (2) to give a final concentration of 7.9 µM.

Data set [1] is described as follows: Duration of action and half life. The following applies: in vivo.
A short description of data set [2]: Antipyretic and analgesic activity. The following applies: in vivo.
Data set [3] is described as follows: Toxicity in animal models: liver damage, therapeutic index.
Data set [4] concerns chromium-labelled heterologous (sheep) erthrocytes target cells coated with mouse anti-sheep erythrocyte serum. Briefly: Antibody-Dependent Cellular Cytotoxicity assay in vitro. It is filed as cell-based. The protocol: The title compound was tested in vitro in Antibody-Dependent Cellular Cytotoxicity assay [Perlmann, P. and Holm, G., Adv. Immunol., 11, 117, (1969)]. Mouse spleen cells from non-immunized animals served as the source of effector cells, assayed with chromium-labelled heterologous (sheep) erthrocytes target cells coated with mouse anti-sheep erythrocyte serum. The final concentration of the anti-serum in the incubation mixture was 1:66, the ratio of effector to target cells 25:1.

Data set [5] has as its system lipoxgenase or cyclooxygenase pathway. Description: Inhibition of prostaglandin metabolism in vitro. It is filed as biochemical.
Data set [6] can be described thus: Carrageenan Pleurisy Assay (CPA), acute anti-inflammatory activity. It is filed as in vivo. The settings on record: po, read-out: ED50, dose required to reduce the 3 hour exudate volume by 50%. From the text:
Following the procedure described by Vinegar et al., in Proc. Soc. […] There were 5 animals in each drug-treated group and the control group.

A short description of the next data set: Solubility in water. It is filed as physicochemical.
Where [7] appears, read: Mus musculus, EL4, read-out: % lysis Reduction.

Structures are written as SMILES. Like-named read-outs stand apart in the source and are kept apart here.

For the molecule `Nc1nc(Cl)nc2c1ncn2[C@@H]1O[C@H](CO)[C@@H](O)[C@H]1O` [2-Chloro-adenosine], in the data set on 51Cr-labelled EL4 cells (setting [7]), the inhibition at 4.7 µM is 62.2% and the inhibition at 9.4 µM worked out at 64.4%.
For `Nc1nc(F)nc2c1ncn2[C@@H]1O[C@H](CO)[C@@H](O)[C@H]1O` [2-Fluoro-adenosine], in the data set with 51Cr-labelled EL4 cells (setting [7]), the inhibition at 1 µM was 48.9% and the inhibition at 2 µM was 60%.
For `Nc1nccc2c1ncn2[C@H]1C[C@H](O)[C@@H](CO)O1` [4-amino-1-(2-deoxy-β-D-ribofuranosyl)-1H-imidazo-[4,5-c]-pyridine], in data set [1], the duration of action result was “about 15 hours” and the half life entry is “short”. Moreover, the inhibition at 18.8 µM with 51Cr-labelled EL4 cells (Mus musculus, EL4, Conc. 18.8 µM, read-out: % lysis Reduction) was 53%. The inhibition at 37.5 µM in the data set on 51Cr-labelled EL4 cells (Mus musculus, EL4, Conc. 37.5 µM, read-out: % lysis Reduction) was 73%. In the data set on 51Cr-labelled EL4 cells (summary statement), the “inhibition of lymphocyte mediated cytolysis” value is “potent inhibitor”. Further, in data set [2], the “analgesic activity per se” value is given as “no analgesic activity” and the antipyretic activity entry is reported as “not antipyretic”. The liver damage entry in data set [3] (in the animal models used) is “does not cause liver damage”. Further, the therapeutic index result in data set [3] (in vivo) is “high”. Moreover, the inhibition at 100 µM in data set [4] (100 µM, 4 hours of incubation at 37 °C, effector to target cells 25:1, read-out: inhibition of target cell-specific chromium release) stood at 83.2%. In data set [4] (4 h), this molecule had an inhibition at 3.1 µM of 31.2%, an inhibition at 6.2 µM of 42.1% and an inhibition at 12.5 µM of 55.9%. In data set [4] (4 h, Dose 25.0 μM), this molecule had an inhibition at 25 µM of 60.2%. The same molecule showed an IC50 in data set [4] (dose-response study) of 6.2 to 12.5 µM. In addition, the “inhibition of prostaglandin metabolism” value in data set [5] was “does not inhibit”. Further, the ED50 in data set [6] (3 hr. vol. p.o., mg/kg of body weight) was 12 mg/kg. Further, the solubility in water entry in “Solubility in water” is recorded as “highly soluble in water”.
In data set [4] (4 h), `Nc1nccc2c1ncn2[C@@H]1O[C@H](CO)[C@@H](O)[C@H]1O` [(4-amino-1-β-D-ribofur-anosyl-1H-imidazo-[4,5-c]-pyridine, reference compound] displayed an inhibition at 3.1 µM of 52.3%, an inhibition at 6.2 µM of 64.8% and an inhibition at 12.5 µM of 66.4%.
As for `Nc1ncnc2c1ncn2[C@@H]1O[C@H](CO)[C@@H](O)[C@H]1O` [Adenosine], the “% lysis Reduction” value in the data set with 51Cr-labelled EL4 cells (Conc. 9.4 µM) and with 51Cr-labelled EL4 cells (Conc. 18.8 µM) was 59% throughout.
Consider `CC(=O)Oc1ccccc1C(=O)O` [Aspirin], for which, in data set [6] (3 h), the ED50 is 28 ± 3.2 mg/kg.
The same measure, in the same setting: in the case of `C[C@]12CCC(=O)C=C1CC[C@@H]1[C@@H]2[C@@H](O)C[C@@]2(C)[C@H]1CC[C@]2(O)C(=O)CO` [Hydrocortisone] it was 14 ± 10.2 mg/kg; in that of `C[C@]12C=CC(=O)C=C1CC[C@@H]1[C@@H]2[C@@H](O)C[C@@]2(C)[C@H]1CC[C@]2(O)C(=O)CO` [Prednisolone], 3 ± 0.5 mg/kg.

The term IC50 denotes the midpoint of a concentration-inhibition curve. Broadly, the ED50 is the dose at which the effect has come halfway, by size or by number of responders.

(Values after patent publication EP0038569A2, “Deazapurine nucleosides, formulations and preparation thereof” (THE WELLCOME FOUNDATION LIMITED, priority 1980, dated 1981).)
